According to publication PMC11249953, “c-KIT inhibitors reduce pathology and improve behavior in the Tg(SwDI) model of Alzheimer’s disease” (Life Science Alliance, 2024):
Where “and” joins values, the source holds several entries; their conditions need not be identical. Identical values can stand only once.

Columns and labels:
PDGFRa = target: T1, PDGFRa (Homo sapiens, UniProt P16234); assay: KINOMEscan competition binding, PDGFRa; details: 10 µM compound
T1 construct: DNA label for qPCR read-out (T7 phage fusion or DNA tag); purchased Eurofins DiscoverX Corporation; host or cells: T7 phage in E. coli (BL21-derived) or HEK-293
Method: The KINOMEscan screening platform (Eurofins DiscoverX Corporation) was performed using active site-directed competition binding assay to quantitatively measure interactions between BK40143 and BK40197 and more than 450 human kinases and disease relevant mutant variants. […] Screening “hits” are identified by measuring the amount of kinase captured in test (BK40143 and BK40197) versus control samples by using a quantitative and ultra-sensitive qRT-PCR method that detects the associated DNA label. BK40143 and BK40197 were screened at 10 µM concentration, and results for primary screen binding interactions were reported as “% Ctrl” (POC), where lower numbers indicate stronger hits and calculated as follows: [test compound signal−positive control signal/negative control signal−positive control signal]×100
negative control = DMSO (100% Ctrl)
positive control = control compound (0% Ctrl)
Based on screening data from of profiled compounds, a proportional relationship between primary screening results and corresponding compound/target affinities can be described as binding constants (Kd values) for the indicated ranges of POC values with tighter binding (higher affinity) interactions associated with lower POC values and weaker binding (lower affinity) associated with higher POC values. Briefly, kinase-tagged T7 phage strains were grown in parallel in 24-well blocks in an E. coli host derived from the BL21 strain. E. coli were grown to log-phase and infected with T7 phage from a frozen stock (multiplicity of infection = 0.4) and incubated with shaking at 32°C until lysis (90–150 min). The lysates were centrifuged (6,000g) and filtered (0.2 μm) to remove cell debris. The remaining kinases were produced in HEK-293 cells and subsequently tagged with DNA for qRT-PCR detection. Streptavidin-coated magnetic beads were treated with biotinylated small molecule ligands for 30 min at RT to generate affinity resins for kinase assays. The liganded beads were blocked with excess biotin and washed with blocking buffer (1% BSA, 0.05% Tween 20, 1 mM DTT; SeaBlock [Pierce]) to remove unbound ligand and to reduce non-specific phage binding. Binding reactions were assembled by combining kinases, liganded affinity beads, and test compounds in 1x binding buffer (20% 0.17x PBS, 0.05% Tween 20, 6 mM DTT; SeaBlock). Test compounds were prepared as 100x stocks in 100% DMSO and directly diluted into the assay. All reactions were performed in polypropylene 384-well plates in a final volume of 0.02 ml. The assay plates were incubated at RT with shaking for 1 h and the affinity beads were washed with wash buffer (1x PBS, 0.05% Tween 20). […] The kinase concentration in the eluates was measured by qRT-PCR.

[1] = test system: SH-SY5Y neuroblastoma cells transfected with α-synuclein; assay: In vitro autophagy assay (Abcam kit, flow cytometry); format: cell-based, human; details: 10 μM, vs DMSO
Method: To establish that treatment with BK40143 and BK40197 induces autophagy, human SH-SY5Y neuroblastoma cells were transfected with an α-synuclein plasmid before being treated with rapamycin/chloroquine as a positive control, DMSO as a negative control, or an ascending dose ([…]) of either BK40143 or BK40197 for 8 h. Cells were then harvested and treated using the Abcam Autophagy Assay kit, which uses a cationic amphiphilic tracer to stain autophagic vacuoles, before analysis via flow cytometry.
Human SH-SY5Y neuroblastoma cells were grown and cultured in F12 media with 10% fetal bovine serum, 1% L-glutamine, and 1% pen/strep at normal atmospheric conditions (37°C, 21% O2, 5% CO2). Upon reaching 50–70% confluence, cells were transduced with a lentivirus containing an alpha-synuclein plasmid and allowed to grow for 8 h. Cells were then treated with an ascending dose (100 nM–10 μM) of BK40143 or BK40197, or DMSO or rapamycin/chloroquine overnight before being harvested and treated with the Abcam Autophagy Assay kit (cat. #ab139484) according to manufacturer’s protocols. Cells were then resuspended in cell staining buffer before being analyzed on a Becton Dickinson LSRFortessas flow cytometer.

TgAPP mice = assay: Morris water maze, TgAPP mice; format: in vivo, mouse; parameters: Platform Distance: unit not given beside the values; Total Distance / Quad Time / Quad Distance / Trial 1 D4 / Trial 1 D4 AVG: unit not given here
Method: The Morris water maze was performed using a water bath 6 ft in diameter and filled with roughly 1 ft of water. The maze was divided into four quadrants, each with a visual stimulus positioned on the wall of the maze in the center of the quadrant arc. A clear platform was placed in one quadrant just beneath the surface of the water. Mice were then placed in a random non-platform quadrant and allowed to swim freely for 60 s (time was stopped and recorded if the mouse found the platform) before being placed on the platform for 15 s and returned to their cage. This was repeated for each of the three quadrants each day for 4 d. On the 5th d, the platform was removed and mice were placed in the quadrant opposite of where the platform had been and allowed to swim freely for 1 min before being returned to their cage. Time spent in the correct quadrant, latency to the platform, number of platform entries, and number of quadrant entries were recorded.

[2] = MWM Probe, single animal values, listed as 197
[3] = MWM Probe, single animal values, listed as 197, in s (unit assumed)
[4] = MWM training, Day 1, single animal values, listed as 197
[5] = MWM training, Day 2, single animal values, listed as 197
[6] = MWM training, Day 3, single animal values, listed as 197
[7] = MWM training, Day 4, single animal values, listed as 197

T1 sequence (P16234 24-1089): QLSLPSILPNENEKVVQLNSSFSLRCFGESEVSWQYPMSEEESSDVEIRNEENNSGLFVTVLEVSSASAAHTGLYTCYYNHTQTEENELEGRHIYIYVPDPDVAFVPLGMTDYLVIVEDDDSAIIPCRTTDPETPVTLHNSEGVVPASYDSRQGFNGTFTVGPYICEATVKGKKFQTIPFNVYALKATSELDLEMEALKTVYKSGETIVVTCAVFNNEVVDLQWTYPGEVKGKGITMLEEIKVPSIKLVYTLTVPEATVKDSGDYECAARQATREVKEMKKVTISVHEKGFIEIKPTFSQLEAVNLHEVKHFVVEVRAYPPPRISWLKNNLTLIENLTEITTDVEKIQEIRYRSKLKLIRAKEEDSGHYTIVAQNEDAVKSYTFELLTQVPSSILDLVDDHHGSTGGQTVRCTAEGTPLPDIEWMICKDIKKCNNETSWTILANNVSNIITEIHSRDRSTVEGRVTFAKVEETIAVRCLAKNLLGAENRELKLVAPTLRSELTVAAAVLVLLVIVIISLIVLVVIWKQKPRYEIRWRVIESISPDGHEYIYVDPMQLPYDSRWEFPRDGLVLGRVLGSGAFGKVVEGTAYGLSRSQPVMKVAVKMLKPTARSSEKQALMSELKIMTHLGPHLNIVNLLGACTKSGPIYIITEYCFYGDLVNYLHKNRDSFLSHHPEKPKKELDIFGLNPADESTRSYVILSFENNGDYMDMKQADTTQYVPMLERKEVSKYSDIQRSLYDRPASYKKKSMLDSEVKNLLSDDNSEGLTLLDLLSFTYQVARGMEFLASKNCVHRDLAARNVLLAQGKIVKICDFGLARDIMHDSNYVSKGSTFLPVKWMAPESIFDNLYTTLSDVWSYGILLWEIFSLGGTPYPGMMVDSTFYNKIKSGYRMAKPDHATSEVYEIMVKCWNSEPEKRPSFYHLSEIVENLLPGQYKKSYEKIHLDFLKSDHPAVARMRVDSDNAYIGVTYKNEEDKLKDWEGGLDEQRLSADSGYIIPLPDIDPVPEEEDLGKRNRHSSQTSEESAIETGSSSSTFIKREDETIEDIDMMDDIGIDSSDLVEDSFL

Cc1cccc(-c2cc3nccc(N4CCOCC4)c3s2)c1 [BK40197]
inhibition at 10 µM (PDGFRa): 74% | remaining binding at 10 µM (PDGFRa; lower = stronger binding, read-out: PDGFRa %Ctrl @ 10000nM (POC)): 26% | labelled cells (autophagic vacuoles), induction of autophagy [1]: significant increases in labelled cells | Platform Distance (TgAPP mice; [2]): 0 and 0.487 and 0.423 and 1.393 and 0.128 and 0.196 and 0.299 and 0.391 | Platform Entries (TgAPP mice; [2]): 0 and 3 and 4 and 8 and 1 and 2 | Quad Distance (TgAPP mice; [2]): 2.071 and 3.416 and 4.643 and 7.432 and 1.451 and 3.963 and 3.288 and 3.437 and 3.953 | Quad Distance/Total (TgAPP mice; [2]): 0.09759 and 0.2373 and 0.3151 and 0.3933 and 0.09964 and 0.2157 and 0.2602 and 0.2506 and 0.2518 | Quad Entries (TgAPP mice; [2]): 3 and 7 and 8 and 16 and 5 and 6 and 4 | Quad Time (TgAPP mice; [2]): 9.1 and 12.9 and 22.8 and 25.1 and 6.9 and 11.1 and 16.2 and 14.3 and 14.6 | Total Distance (TgAPP mice; [2]): 21.221 and 14.396 and 14.736 and 18.898 and 14.562 and 18.377 and 12.635 and 13.714 and 15.701 | Platform Latency (TgAPP mice; MWM Probe, single animal values, listed as 197, in s): 60 and 2.1 and 31.3 and 11.1 and 21.2 and 56 and 26.7 and 7.2 | Platform Time (TgAPP mice; [3]): 0 and 1.9 and 1.5 and 5.2 and 0.3 and 0.7 and 1 and 1.4 | Quad Latency (TgAPP mice; [3]): 4.7 and 3 and 16.9 and 2.3 and 4.3 and 3.9 and 21.1 and 6.8 and 3.2 | Quad Time per Entry (TgAPP mice; [3]): 3.033 and 1.843 and 2.85 and 1.569 and 1.38 and 1.85 and 4.05 and 3.575 and 1.825 | Training Day 1 AVG (TgAPP mice; MWM training, Day 1, group average): 45.4333 | Training Day 1, mean of the three trials per animal (TgAPP mice; MWM training, Day 1, per-animal mean, listed as 197): 43.78 and 60 and 43.62 and 54.8167 and 46.8067 and 44.7133 and 26.0367 and 29.1267 | Training Day 1, trial 1 (TgAPP mice; [4]): 60 and 47.21 and 31.28 and 46.64 | Training Day 1, trial 2 (TgAPP mice; [4]): 11.34 and 60 and 54.03 and 25.14 and 29.4 | Training Day 1, trial 4 (TgAPP mice; [4]): 60 and 23.65 and 44.45 and 26.39 and 14.14 and 21.69 and 11.34 | Training Day 2 AVG (TgAPP mice; MWM training, Day 2, group average): 47.2204 | Training Day 2, mean of the three trials per animal (TgAPP mice; MWM training, Day 2, per-animal mean, listed as 197): 13.1033 and 49.5833 and 60 and 36.82 and 56.3433 and 52.21 and 40.7533 and 56.17 | Training Day 2, trial 1 (TgAPP mice; [5]): 7.57 and 60 | Training Day 2, trial 2 (TgAPP mice; [5]): 5.62 and 60 and 36.25 and 49.03 and 36.63 and 55.69 | Training Day 2, trial 4 (TgAPP mice; [5]): 26.12 and 28.75 and 60 and 14.21 and 6.57 and 48.51 | Training Day 3 AVG (TgAPP mice; MWM training, Day 3, group average): 28.2515 | Training Day 3, mean of the three trials per animal (TgAPP mice; MWM training, Day 3, per-animal mean, listed as 197): 11.39 and 34.5433 and 18.6367 and 42.7367 and 27.2267 and 23.27 and 38.7467 and 28.4767 and 29.2367 | Training Day 3, trial 1 (TgAPP mice; [6]): 9.97 and 10.56 and 13.44 and 8.21 and 13.9 and 27.12 and 60 and 23.21 and 11.51 | Training Day 3, trial 2 (TgAPP mice; [6]): 6.2 and 40.75 and 11.22 and 60 and 7.78 and 16.82 and 30.27 and 28.53 and 34.18 | Training Day 3, trial 4 (TgAPP mice; [6]): 18 and 52.32 and 31.25 and 60 and 25.87 and 25.97 and 33.69 and 42.02 | Trial 1 D4 AVG (TgAPP mice; MWM training, Day 4, Trial 1, group average): 16.0867 | Trial 1 D4 (TgAPP mice; MWM training, Day 4, Trial 1, single animal values listed by group, listed as 197): 29.9 and 18.58 and 17.08 and 9.97 and 12.28 and 11 and 6.82 and 20 and 19.15 | Training Day 4 AVG (TgAPP mice; MWM training, Day 4, group average): 27.9559 | Training Day 4, mean of the three trials per animal (TgAPP mice; MWM training, Day 4, per-animal mean, listed as 197): 18.2367 and 14.52 and 22.8833 and 26.0267 and 20.9367 and 33.48 and 29.6433 and 39.9233 and 45.9533 | Training Day 4, trial 1 (TgAPP mice; [7]): 33 and 13.59 and 44.97 and 60 and 41.71 and 20.44 and 36.65 | Training Day 4, trial 2 (TgAPP mice; [7]): 17.08 and 9.97 and 12.28 and 11 and 6.82 and 20 and 19.15 and 29.9 and 18.58 | Training Day 4, trial 4 (TgAPP mice; [7]): 4.63 and 20 and 11.4 and 7.08 and 14.28 and 60 and 9.78 and 53.22 and 59.28 | Morris water maze training trials: time to locate the platform (TgAPP mice; TgAPP mice, BK40143 5 mg/kg, BK40197 45 mg/kg IP, 6 wk, vs DMSO): locate the platform significantly quicker on later training trials
